The results in this text go back to ChEMBL document CHEMBL1123697, “Heteroatom-activated beta-lactam antibiotics: considerations of differences in the biological activity of [[3(S)-(acylamino)-2-oxo-1-azetidinyl]oxy]acetic acids (oxamazins) and the corresponding sulfur analogues (thiamazins)” (J Med Chem, 1987).

What all share (format): ADME
Conditions in all cases: buffer

Data set [1] in a line: Half life at pH 11.
Data set [2] can be described thus: Pseudo first order rate constant for the alkaline hydrolysis of beta-lactams (35 degree Celsius) was determined at pH 11.
Data set [3] can be described thus: Half life at pH 10.
Data set [4] can be described thus: Pseudo first order rate constant for the alkaline hydrolysis of beta-lactams (35 degree Celsius) was determined at pH 10.

Each structure is given as a SMILES string.

Broadly, the half-life is the time needed for the level to fall by half in the phase considered. Lower therefore signals rapid decline. For `C[C@@H]1NC(=O)[C@H]1NC(=O)OCc1ccccc1`, in data set [1], the half-life is 1440 min. The compound also had a k in data set [2] of 0.029 h⁻¹.

In data set [3], `C[C@H]1[C@H](NC(=O)Cc2ccccc2)C(=O)N1OCC(=O)O` had a half-life of 132 min. The compound also had a k in data set [4] of 0.31 h⁻¹.

Regarding `C[C@H]1[C@H](NC(=O)Cc2ccccc2)C(=O)N1SCC(=O)[O-].[K+]`, the half-life in data set [3] is 57 min. The k in data set [4] was 0.73 h⁻¹.

The compound `C[C@H]1[C@H](NC(=O)/C(=N\OC(C)(C)C(=O)O)c2csc(N)n2)C(=O)N1S(=O)(=O)O` [AZTREONAM] came in with a k in data set [4] of 0.4 h⁻¹.
